Measured values: PubChem BioAssay (NCI)
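Method: 48-hour compound exposure of cells in 96-well plates, five concentrations, linear interpolation of endpoints. GI50: concentration for 50% inhibition of growth. TGI is the concentration that stops growth completely.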

Tests used:
Experiment in all cases: NCI anticancer screen, dose series, 48 h
SW-620 colon = test system: SW-620 colon
SF-268 CNS = test system: SF-268 CNS
U251 CNS = test system: U251 CNS
OVCAR-5 ovarian = test system: OVCAR-5 ovarian
MDA-MB-231 breast = test system: MDA-MB-231 breast
SK-MEL-2 melanoma = test system: SK-MEL-2 melanoma
SN12C renal = test system: SN12C renal
ACHN renal = test system: ACHN renal
UO-31 renal = test system: UO-31 renal
M14 melanoma = test system: M14 melanoma
A549 NSCLC = test system: A549 NSCLC
HOP-92 NSCLC = test system: HOP-92 NSCLC
OVCAR-8 ovarian = test system: OVCAR-8 ovarian
CCRF-CEM leukemia = test system: CCRF-CEM leukemia
NCI-H226 lung = test system: NCI-H226 lung
HL-60(TB) leukemia = test system: HL-60(TB) leukemia
K-562 leukemia = test system: K-562 leukemia
MALME-3M melanoma = test system: MALME-3M melanoma
SF-539 CNS = test system: SF-539 CNS
HCT-15 colon = test system: HCT-15 colon
HT29 colon = test system: HT29 colon
OVCAR-4 ovarian = test system: OVCAR-4 ovarian
A498 renal = test system: A498 renal
RPMI-8226 leukemia = test system: RPMI-8226 leukemia
SK-OV-3 ovarian = test system: SK-OV-3 ovarian
MCF7 breast = test system: MCF7 breast
SF-295 CNS = test system: SF-295 CNS
COLO 205 colon = test system: COLO 205 colon
DU-145 prostate = test system: DU-145 prostate
UACC-62 melanoma = test system: UACC-62 melanoma
EKVX NSCLC = test system: EKVX NSCLC
T-47D breast = test system: T-47D breast
UACC-257 melanoma = test system: UACC-257 melanoma
BT-549 breast = test system: BT-549 breast
PC-3 prostate = test system: PC-3 prostate
SNB-19 CNS = test system: SNB-19 CNS
SK-MEL-5 melanoma = test system: SK-MEL-5 melanoma
HCT-116 colon = test system: HCT-116 colon
HOP-62 NSCLC = test system: HOP-62 NSCLC
NCI-H522 lung = test system: NCI-H522 lung
NCI/ADR-RES ovarian = test system: NCI/ADR-RES ovarian
MDA-MB-435 = test system: MDA-MB-435
HCC-2998 colon = test system: HCC-2998 colon
RXF 393 renal = test system: RXF 393 renal
NCI-H23 lung = test system: NCI-H23 lung
HS 578T breast = test system: HS 578T breast
IGROV1 ovarian = test system: IGROV1 ovarian
CAKI-1 renal = test system: CAKI-1 renal
TK-10 renal = test system: TK-10 renal
786-0 renal = test system: 786-0 renal
LOX IMVI melanoma = test system: LOX IMVI melanoma
SK-MEL-28 melanoma = test system: SK-MEL-28 melanoma
MOLT-4 leukemia = test system: MOLT-4 leukemia
KM12 colon = test system: KM12 colon
NCI-H460 lung = test system: NCI-H460 lung

O=C(CCCCCCNC(=O)c1csc(Br)n1)NO
GI50 (SW-620 colon): 637 nM
TGI (SW-620 colon): 1580 nM
GI50 (SF-268 CNS): 2430 nM
TGI (SF-268 CNS): > 33.3 µM
GI50 (U251 CNS): 1530 nM
TGI (U251 CNS): 7.23 µM
GI50 (OVCAR-5 ovarian): 1160 nM
TGI (OVCAR-5 ovarian): > 33.3 µM
GI50 (MDA-MB-231 breast): 2010 nM
TGI (MDA-MB-231 breast): > 33.3 µM
GI50 (SK-MEL-2 melanoma): 1180 nM
TGI (SK-MEL-2 melanoma): 6.73 µM
GI50 (SN12C renal): 2950 nM
TGI (SN12C renal): > 33.3 µM
GI50 (ACHN renal): 1180 nM
TGI (ACHN renal): 7.53 µM
GI50 (UO-31 renal): 1120 nM
TGI (UO-31 renal): > 33.3 µM
GI50 (M14 melanoma): 1640 nM
TGI (M14 melanoma): > 33.3 µM
GI50 (A549 NSCLC): 1350 nM
TGI (A549 NSCLC): 14.4 µM
GI50 (HOP-92 NSCLC): 706 nM
TGI (HOP-92 NSCLC): 2240 nM
GI50 (OVCAR-8 ovarian): 961 nM
TGI (OVCAR-8 ovarian): 9.58 µM
GI50 (CCRF-CEM leukemia): 1060 nM
TGI (CCRF-CEM leukemia): > 33.3 µM
GI50 (NCI-H226 lung): 5.17 µM
TGI (NCI-H226 lung): > 33.3 µM
GI50 (HL-60(TB) leukemia): 1270 nM
TGI (HL-60(TB) leukemia): > 33.3 µM
GI50 (K-562 leukemia): 1130 nM
TGI (K-562 leukemia): > 33.3 µM
GI50 (MALME-3M melanoma): 787 nM
TGI (MALME-3M melanoma): > 33.3 µM
GI50 (SF-539 CNS): 1620 nM
TGI (SF-539 CNS): > 33.3 µM
GI50 (HCT-15 colon): 2160 nM
TGI (HCT-15 colon): > 33.3 µM
GI50 (HT29 colon): 985 nM
TGI (HT29 colon): 5.56 µM
GI50 (OVCAR-4 ovarian): 3.65 µM
TGI (OVCAR-4 ovarian): > 33.3 µM
GI50 (A498 renal): 676 nM
TGI (A498 renal): 2080 nM
GI50 (RPMI-8226 leukemia): 951 nM
TGI (RPMI-8226 leukemia): 13.4 µM
GI50 (SK-OV-3 ovarian): 1040 nM
TGI (SK-OV-3 ovarian): 5.43 µM
GI50 (MCF7 breast): 1410 nM
TGI (MCF7 breast): > 33.3 µM
GI50 (SF-295 CNS): 1660 nM
TGI (SF-295 CNS): 9.37 µM
GI50 (COLO 205 colon): 700 nM
TGI (COLO 205 colon): 1780 nM
GI50 (DU-145 prostate): 1210 nM
TGI (DU-145 prostate): > 33.3 µM
GI50 (UACC-62 melanoma): 699 nM
TGI (UACC-62 melanoma): 2500 nM
GI50 (EKVX NSCLC): 1990 nM
TGI (EKVX NSCLC): > 33.3 µM
GI50 (T-47D breast): 648 nM
TGI (T-47D breast): 1830 nM
GI50 (UACC-257 melanoma): 853 nM
TGI (UACC-257 melanoma): 3.33 µM
GI50 (BT-549 breast): 3.05 µM
TGI (BT-549 breast): > 33.3 µM
GI50 (PC-3 prostate): 2430 nM
TGI (PC-3 prostate): > 33.3 µM
GI50 (SNB-19 CNS): 3.2 µM
TGI (SNB-19 CNS): > 33.3 µM
GI50 (SK-MEL-5 melanoma): 1240 nM
TGI (SK-MEL-5 melanoma): 4.9 µM
GI50 (HCT-116 colon): 892 nM
TGI (HCT-116 colon): 3.78 µM
GI50 (HOP-62 NSCLC): 1410 nM
TGI (HOP-62 NSCLC): > 33.3 µM
GI50 (NCI-H522 lung): 844 nM
TGI (NCI-H522 lung): 5.09 µM
GI50 (NCI/ADR-RES ovarian): 694 nM
TGI (NCI/ADR-RES ovarian): 2500 nM
GI50 (MDA-MB-435): 1050 nM
TGI (MDA-MB-435): 6.3 µM
GI50 (HCC-2998 colon): 3.4 µM
TGI (HCC-2998 colon): 13.1 µM
GI50 (RXF 393 renal): 929 nM
TGI (RXF 393 renal): 3.11 µM
GI50 (NCI-H23 lung): 1900 nM
TGI (NCI-H23 lung): > 33.3 µM
GI50 (HS 578T breast): 917 nM
TGI (HS 578T breast): 22.1 µM
GI50 (IGROV1 ovarian): 1690 nM
TGI (IGROV1 ovarian): > 33.3 µM
GI50 (CAKI-1 renal): 1120 nM
TGI (CAKI-1 renal): 8.22 µM
GI50 (TK-10 renal): 619 nM
TGI (TK-10 renal): 2550 nM
GI50 (786-0 renal): 2440 nM
TGI (786-0 renal): > 33.3 µM
GI50 (LOX IMVI melanoma): 47.3 nM
TGI (LOX IMVI melanoma): 3.79 µM
GI50 (SK-MEL-28 melanoma): 1290 nM
TGI (SK-MEL-28 melanoma): > 33.3 µM
GI50 (MOLT-4 leukemia): 1020 nM
TGI (MOLT-4 leukemia): > 33.3 µM
GI50 (KM12 colon): 2750 nM
TGI (KM12 colon): > 33.3 µM
GI50 (NCI-H460 lung): 1250 nM
TGI (NCI-H460 lung): > 33.3 µM
